One may read the IC50 as the concentration that gives 50% inhibition.

From US20260242359A1, “IRHOM2 INHIBITORS AND USES THEREOF” (NEW YORK SOCIETY FOR THE RELIEF OF THE RUPTURED AND …, priority 2023, published 2026) come the findings set out here.

Common to all, as to type: cell-based
The subject of assay [1] is PMA-stimulated TGFα release from HEK-293 cells (substrate of iRhom1/ADAM17 and iRhom2/ADAM17). The experiment in a line: Counter screen (Example 4b): PMA-stimulated TGFα release from HEK-293 cells, AP readout. Conditions: Homo sapiens, HEK293, HEK-293 cells expressing TGFα-AP, PMA 100 ng/mL, 2 h. As for the experimental part:
A tertiary counterscreen was also performed to monitor the release of TGFα, which is a substrate of iRhom1/ADAM17 and iRhom2/ADAM17, so its release should not be blocked by an iRhom2-selective inhibitor (Maretzky T et al. (July 2013), “iRhom2 controls the substrate selectivity of stimulated ADAM117-dependent ectodomain shedding”, PNAS 110(28): 11433-11438; and Li X et al. (May 2015), “iRhoms 1 and 2 are essential upstream regulators of ADAM17-dependent EGFR signaling”, PNAS 112(19): 6080-6085).
(§1) Expression plasmids for alkaline phosphatase (AP)-fused human KL2 and TGFα had been previously designed and generated through gene synthesis followed by subcloning into the pcDNA3.1(+)/Hygro expression vector. […] Subsequently, DNA amplifications were performed to obtain sufficient amounts of the expression vectors. The quality of DNA and gene sequences were confirmed through restriction digest and Sanger sequencing. In parallel, cell culture of HEK-293 cells was initiated. Master and working cell banks were prepared, scaled up and transfected with the respective constructs by electroporation. During cell culturing, cell density and viability were monitored to ensure optimal conditions for the transfections. After PMA stimulation, AP-coupled KL2 or TGFα were detected by measurement of AP activity in the supernatant.
(§2) After electroporation, cells were further cultured in presence of selection antibiotics, hygromycin B, to generate stably transfected polyclonal cell pools. For both assays, KL2 and TGFα shedding, the respective selected pool turned out to be suitable. Final assay conditions were determined for the selected pools. For all experiments, batimastat (BB94, 10 μM) was used as positive control for full inhibition of KL2 or TGFα shedding.
(§3) The wells of sterile 384-well flat bottom clear plates for TGF-AP assays were coated with 10 μL of 0.1 mg/mL poly-d-lysine for 3-4 hr at 25° C. or overnight at 4° C., then washed 2× with PBS and patted dry. 60 μL of cells (20,000/well) were added to the sterile 384-well plate and incubated in Optimem (with 2% FCS and 1% Pen-strep) overnight at 37° C. (5% CO2). After incubation overnight, 55 μL medium were removed with a BioTek EL406 and 10 μL of prediluted compounds were added to the cells for a final concentration of 20 μM. After incubation for 15 min, 15 μL of PMA (100 ng/mL final conc.) were added. The cells were incubated for 2 h at 37° C. (5% CO2). Then, the plates were centrifuged for 5 min at 1000 rpm and 12 μL of the supernatant was transferred to a fresh 384 well plate. 12 μL of pNPP p-nitrophenyl phosphate (final 1 M pNPP) was added. AP reaction was performed for 1 h at 37° C. The reaction was stopped by addition of 12 μL of NaOH (1 M final conc.), the plates were centrifuged to remove air bubbles and the absorbance of pNP was measured at 405 nm.
In general terms: Counterscreens check selectivity or assay interference.

In assay [2] the test system is TNFα release from LPS-stimulated THP-1 cells (iRhom2/ADAM17-dependent). The experiment in a line: Primary screen (Example 1b): LPS-stimulated TNFα release from THP-1 cells, HTRF. Conditions: Homo sapiens, overnight pre-incubation, LPS 100 ng/mL, 3 h, normalized against 10 μM Batimastat. The method, then:
(§4) Two separate screens to identify novel small molecule inhibitors of iRhom2/ADAM17 activity were developed. […] Therefore, the primary screen for small molecule inhibitors of iRhom2/ADAM17 was a screen for inhibitors that blocked the release of TNFα from LPS-stimulated THP-1 human myeloid cells, a process that depends on iRhom2 and ADAM17. Since the release of TNFα from THP-1 cells can be blocked at many stages of the LPS/TLR4/iRhom2/ADAM17 pathway, a secondary screen was performed for another iRhom2/ADAM17 selective substrate, Kit-ligand 2 (KL-2) (Maretzky T et al. (July 2013), “iRhom2 controls the substrate selectivity of stimulated ADAM17-dependent ectodomain shedding”, PNAS 110(28): 11433-11438) in a different human cell type, human embryonic kidney cells (HEK 293).
THP-1 cells were plated in low volume 384 wells (10,000 cells per well in 12.6 μL RPMI medium) together with inhibitors or 10 μM BB94 and incubated over night. The next day, TNFα shedding was initiated by stimulation of THP-1 cells with 100 ng/mL LPS (1.8 μL of an 800 ng/mL LPS stock) for 3 hrs at 37° C. The extent of released TNFα was detected with the corresponding HTRF antibodies labeled with europium cryptate (donor) and d2 (acceptor). The HTRF signal was generated by proximity of europium cryptate and d2. All detection reagents were purchased from Cisbio. TNFα detection was performed according to the manufacturer's protocol (Product Insert for Cisbio TNFα (h) Kit Part #62HTNFAPEG & 62HTNFAPEH; https://www.cisbio.com/media/asset/c/i/cisbio_dd_pi_62htnfapeg-62htnfapeh.pdf, accessed Sep. 28, 2020).
Low volume 384 well plates were pre-coated with small molecule library compounds for a final concentration of 20 μM in a 15 μL reaction, or 0.75 μL of 200 μM stock of BB94 in 5% DMSO (final concentration 0.25%). 12.6 μL of cell suspension [8E5/mL; 10,000 cells/well; culture RPMI medium] and pre-incubated at 37° C., 5% CO2, over night. The next day, 1.8 μL of an 800 ng/mL LPS stock was added [final concentration 100 ng/mL in 15 μL assay] and the cells were incubated at 37° C., 5% CO2, for 3 h. Subsequently, 3 μL of the HTRF-mix [used at 1:3 dilution of cisbio HTRF human TNF] was added and the plates were incubated for an additional 2 hrs at 25° C. After an incubation at room temperature for 2 h, the HTRF readout was performed. Then data evaluation for normalization against the 10 μM Batimastat control (=100% […]) was applied.
On the technique in general: Time-resolved FRET reads energy transfer from a long-lived donor to a nearby acceptor.

In assay [3] the test system is PMA-stimulated KL2 release from HEK-293 cells (iRhom2/ADAM17 selective substrate). Put plainly: Secondary screen (Example 3b): PMA-stimulated KL2 release from HEK-293 cells, AP readout. Conditions: Homo sapiens, HEK293, HEK-293 cells expressing KL2-AP, PMA 100 ng/mL, 2 h, read-out: Secondary Screen IC50 KitL2. As for the experimental part:
as §4, §1, §2
as §3, with “for KL2-AP” for “for TGF-AP”, “cells (40,000/well)” for “cells (20,000/well)”, “and 3” for “and 12”, “well plate and 9 μL of AP Balance Buffer was added per well.” for “well plate.”

`CC(=O)Oc1ccccc1Cn1c(C)c(C(=O)NCc2cccs2)sc1=O` [Compound 6]: the IC50 was over 40 µM in assay [1], 4.86 µM in assay [2] and over 40 µM in assay [3].
